Source: patent US8557804B2, “Nicotinic receptor agonists for the treatment of inflammatory diseases” (priority 2002, dated 2013)
Where “and” joins values, the source holds several entries; their conditions need not be identical. Equal entries are not always repeated. Entries after “also recorded” stand apart in the source; their conditions may differ. Structures can show the parent of a compound that is named as a salt. Where two headings read alike, the source gives them in different places.

Tests used:
[1] = tested on: allergic inflammation of the lungs in ovalbumin-sensitized mice; experiment: Ovalbumin-sensitized mouse asthma model, BAL cell counts; type: in vivo, Balb/c mice; details: Mus musculus, 72 h; intra-nasal 0.5 to 4 mg/kg/d for 3 days, n=8; read-out: ED50, cellular inflammation in the lungs (BAL cells)
Method: Groups of Balb/c mice were sensitized by intra-peritoneal injection of 20 μg OVA protein (chicken egg albumin; Sigma-Aldrich) emulsified in 2 mg aluminum hydroxide in PBS. After 4 weeks, challenge doses of 1.5%/50 μl OVA were administered intranasally. The challenge was performed daily for 3 consecutive days and then the mice assessed for allergic inflammation of the lungs 24 h after the last aerosol exposure. Groups of mice were treated with various concentrations of DMPP during the challenge period. Broncho-alveolar lavage (BAL) was performed and the fluid centrifuged at 400 g to separate cells from liquid.
Ovalbumin-sensitized mice (n=8) were challenged with the allergen and simultaneously treated intra-nasally with increasing concentrations of ASM-002 (0.5 to 4 mg/kg/d) for 3 days. The number of cells recovered by broncho-alveolar lavage was used as a measure of lung inflammation.

[2] = tested on: lung resistance after metacholine challenge; experiment: Airway hyper-reactivity / lung resistance to metacholine in asthmatic mice (FlexiVENT); type: in vivo; details: ASM-002 4 mg/kg intra-nasal 3 days and 10 minutes prior to challenge; Salbutamol 10 minutes before
Method: Airway hyper-reactivity (AHR) in response to metacholine was measured in anesthetized, tracheotomized, ventilated mice using a computer-controlled ventilator (FlexiVENT™).
Increasing doses of metacholine (0 mg/kg-32.5 mg/kg) were administered through the jugular vein.
Lung response to a broncho-constrictive agent, metacholine, was measured by a Flexi-vent® apparatus. Ovalbumin-sensitized animals were treated intra-nasally with ASM-002 (4 mg/kg) during 3 days and 10 minutes prior to the metacholine challenge and compared to untreated OVA-sensitized animals. A negative control group of un-sensitized animals and a positive control group that received Salbutamol (Ventolin) 10 minutes before the metacholine challenge were also included.

[3] = tested on: TNF release by human blood monocytes; experiment: cells; type: cell-based
Method: Human monocytes were isolated from the blood of asthmatic patients by Ficoll-paque density gradient, let to adhere to tissue culture plates and stimulated with LPS (100 ng/ml) for 18 hours at 37° C. with or without increasing concentrations of nicotine. The release of TNF, a potent pro-inflammatory mediator, was measured in the cell culture supernatant by the ELISA method. Results are expressed as a percentage release from LPS-stimulated untreated cells (FIG. 28).
Tumor necrosis factor (TNF) is a mediator released in inflammatory states.
Human blood monocytes were isolated by Ficoll-paque density gradient, let to adhere to tissue culture plates and stimulated with LPS (100 ng/ml) for 18 hours at 37° C. with or without increasing concentrations of nicotine analogues.

[4] = tested on: LTC4 release by blood eosinophils; experiment: LTC4 production by PAF-stimulated blood eosinophils (enzyme immunoassay); type: cell-based, human; details: for LTC4: eosinophils pre-incubated 18 hours with analog, PAF stimulated, untreated 1725.80
Method: Blood eosinophils, the most increased inflammatory cells in asthma, were isolated by negative selection using bead-conjugated anti-CD16 monoclonal antibody and magnetic activating cell sorting. Cells were pre-Incubated for 18 hours with the various DMPP analogs and then stimulated with 1 µM platelet-activating factor (PAF) to produce LTC4 which was measured by enzyme immunoassay.
Human blood eosinophils were isolated from blood of asthmatic patients, stimulated in vitro with platelet activating factor (PAF) to produce large amounts of LTC4, and treated or not with 80 μM ASM-002.

[5] = tested on: mouse tracheal airway smooth muscle; experiment: Isometric study on isolated mouse tracheas pre-contracted with metacholine; details: cumulative doses, p=0.002
Method: Tracheal rings were mounted isometrically to force transducers in organ baths containing Krebs bicarbonate solution at 37° C. and bubbled with 95% O2-5% CO2, pre-contracted with submaximal concentration of metacholine (10^−5) and cumulative doses of the analogs were added to the baths. Changes of tension are recorded. Results are expressed as a percentage of maximal contraction (FIG. 29).
(§1) As described previously, tracheal or bronchial rings were mounted isometrically to force transducers in organ baths containing Krebs bicarbonate solution at 37° C. and bubbled with 95% O2-5% CO2, pre-contracted with submaximal concentration of metacholine cumulative doses of ASM-002 added. Changes of tension are recorded. Results are expressed as a percentage of maximal contraction for mouse (FIG. 34, p=0.002), dog (FIG. 35, p=0.004) and human (FIG. 36)

dog bronchial rings = experiment: Isometric study on dog bronchial rings pre-contracted with metacholine; details: cumulative doses, p=0.004
Method: as §1

human bronchial rings = experiment: Isometric study on human bronchial rings pre-contracted with metacholine; details: cumulative doses
Method: as §1

[6] = tested on: lung inflammation in dogs sensitized to Ascaris suum; experiment: Dog asthma model (Ascaris suum), cellular inflammation in bronchoalveolar lavages; type: in vivo; details: ASM-002 8 mg/kg (4 mg/kg 2× day in the food); prednisone 1 mg/kg 1× day; n=12
Method: (§2) In this model 12 dogs naturally sensitized to the roundworm Ascaris suum were used in a cross-over study design. Four groups of 3 dogs were randomly formed, exposed to the allergen, and each animal was left either untreated or received alternatively, ASM-002 (4 mg/kg 2× day in the food), or prednisone (1 mg/kg 1× day in the food), the most commonly used corticosteroid drug used to treat inflammation in asthma.
Cellular inflammation was evaluated in the bronchoalveolar lavages.

[7] = tested on: lung resistance in hyperresponsive dogs; experiment: Dog model of lung hyper-responsiveness to metacholine; type: in vivo; details: 12 hyperresponsive dogs
Method: as §2
Hyper-responsiveness is described as the capacity of the lung to react (to increase lung resistance) to a non-specific external stimuli like metacholine or to allergens A hyper-responsive allergen-sensitized dog (asthmatic) will react to lower concentrations of metacholine compared to a non allergic dog. Similarly, improvement in lung hyper-responsiveness is shown by an increase in metacholine concentrations necessary to induce the same level of lung resistance.
Increasing concentrations of metacholine were administered with or without treatment with ASM-002 or Prednisone™ and lung resistance recorded.

blood eosinophils = experiment: Blood eosinophil transmigration through an artificial basement membrane (Matrigel coated chemotaxis chamber); type: cell-based
Text: Infiltration of eosinophils and other inflammatory cells into lung tissues is an important feature of asthma and the cause of airway inflammation and hyper-responsiveness. The passage of inflammatory cells from the circulation to the lung involves migration through the vascular endothelium, the basement membrane, and extra-cellular matrix components. Inflammatory cells cross the basement membrane by producing proteinases. In these preliminary in vitro experiments, the effects of various nicotinic agonists on the migration of purified blood eosinophils through an artificial basement membrane (Matrigel® coated chemotaxis chamber) were investigated. […] Results are expressed as a percentage of inhibition (agonists-treated cells) compared to the control condition without the agonists.

[8] = tested on: SR-induced inflammation in mice; experiment: Short term SR-induced acute lung inflammation in mice, BAL cells; type: in vivo
Text: The Intranasal instillation of Saccharopolyspora rectivirgula (SR) antigens, the causative agent for farmer's lung, to mice, induces a prominent inflammatory response in the lung. Neutrophils are the first inflammatory cells recruited at the site of inflammation.

[9] = tested on: collagen 1A mRNA expression by normal human lung fibroblasts; experiment: Collagen A1 gene expression by RT-PCR in primary normal lung fibroblasts; type: cell-based
Method: Asthma is characterized by airway structural changes, including sub-epithelial collagen deposition, that may be a cause for the chronicity of the disease. An imbalance between collagen synthesis and its degradation by fibroblasts may be involved in this process (56). In preliminary experiments, we investigated the effects of nicotinic agonists on collagen A1 synthesis produced by primary normal fibroblasts. Collagen A1 gene expression was evaluated by RT-PCR.
The results are expressed percentage gene expression in agonists treated cells compared to non-treated cells.

[10] = reference (40); cited from earlier work
[11] = tested on: TNF-α mRNA expression in AMJ2-C11 cells; experiment: TNF-α mRNA expression by RT-PCR in AMJ2-C11 cells; type: cell-based, mouse
Method: (§3) The effect of nicotine or DMPP treatment on AMJ2-C11 cells was tested on TNF-α, IL-10 mRNA expression by RT-PCR. These cytokines are involved in the development of pulmonary inflammatory diseases such as HP, asthma and sarcoidosis (52-55). […] Reference is made to FIG. 3 where results are expressed as a % of expression, 100% being attributed to the LPS alone group. The intensity of the band was obtained by dividing the intensity of the TNF-α band by that of β-actin. […] Reference is made to FIG. 4 where results are expressed as described in FIG. 5.

[12] = tested on: IL-10 mRNA expression in AMJ2-C11 cells; experiment: IL-10 mRNA expression by RT-PCR in AMJ2-C11 cells; type: cell-based, mouse
Method: as §3

[13] = tested on: CD80 expression on AMJ2-C11 cells; experiment: B7 (CD80) molecule expression on AMJ2-C11 cells; type: cell-based, mouse; details: LPS (0.1 μg/ml) stimulated, 40 μM for 48 h; LPS alone 38%
Method: The effects of nicotine and DMPP on B7 (CD80) molecule expression were tested in vitro. AMJ2-C11 cells (mouse alveolar macrophages, from the ATCC) were incubated with 40 μM nicotine or DMPP and stimulated with LPS (0.1 μg/ml) or SR antigen (50 μg/ml) for 48 hours.

[14] = tested on: CD86 expression on alveolar macrophages; experiment: CD86 expression in SR-stimulated BAL cells of a normal patient; type: cell-based, human; details: SR-stimulated alveolar macrophages
Method: A broncho-alveolar lavage was performed on a normal patient, and alveolar macrophages were isolated.

IL-4 mRNA expression = IL-4 mRNA expression induced by a 24 h LPS stimulation; type: cell-based; details: LPS stimulation 24 h, 40 μM
Method: The effect of agonist treatment on mRNA expression of IL-4, a cytokine that is well known to be involved in the development of asthma, was also tested (53). […] Cells were treated with different doses (40 to 160 μM for both nicotine and DMPP).

[15] = tested on: Saccharopolyspora rectivirgula (SR) antigen-induced HP in mice; details: IP nicotine 0.5 to 2.0 mg/kg twice a day
IFN-γ mRNA = details: pulmonary macrophages and lymphocytes from nicotine treated animals, anti-CD3 + IL-2
[16] = purified blood eosinophils, Matrigel

C[N+]1(C)CCCN(c2ccccc2)CC1 (as salt: iodide) [ASM-002, 1,1-dimethyl-4-phenylhomopiperazinium iodide]
melting point: 158 to 160 °C

C[N+]1(C)CCCN(c2ccccc2)CC1 [ASM-002, 1,1-dimethyl-4-phenylhomopiperazinium iodide]
ED50 [1]: 0.71 mg/kg
lung resistance induced by metacholine compared to untreated OVA-sensitized mice [2]: significant reduction (return to baseline levels)
TNF release ([3]; 40 μM, mean of 5 subjects): inhibits TNF release
EC50 ([3]; Monocyte, LPS-stimulated human blood monocytes, n=6, read-out: EC50, inhibition of TNF release): 3000 nM
LTC4 production ([4]; 80 μM, PAF, eosinophils of asthmatic patients, 6 patients, p=0.0007): significant inhibition
LTC4 [4]: 246.40 pg/mL
relaxing effect on pre-contracted mice tracheas [5]: relaxing effect
relaxing effect on pre-contracted dog bronchi (dog bronchial rings): relaxing effect
relaxing effect on pre-contracted human bronchi (human bronchial rings): relaxing effect
cellular inflammation in the lungs of asthmatic dogs [6]: inhibits significantly
dogs with decreased lung resistance / improved hyper-responsiveness [7]: 7 out of 12

CC[N+]1(C)CCN(c2ccccc2)CC1 [ASM-003]
LTC4 [4]: 613.90 pg/mL

CC[N+]1(CC)CCN(c2ccccc2)CC1 [ASM-005]
effect on TNF release ([3]; monocytes of asthmatic patients, LPS 100 ng/ml 18 h, n=8 to 10): Except for ASM-005, all analogs tested had an inhibitory effect

O=c1cccc2n1C[C@@H]1CNC[C@H]2C1 [cytisine]
inhibition of eosinophil transmigration (blood eosinophils): reduce blood eosinophil transmigration

Clc1ccc(C2CC3CCC2N3)cn1 (stereo not drawn) [epibatidine, Epibatidine]
effect on SR-induced inflammation (BAL cells) ([8]; mouse, in vivo): marked inhibitory effect; also recorded: significant inhibitory effect
inhibition of eosinophil transmigration (blood eosinophils; [16]): reduce blood eosinophil transmigration
collagen A1 gene expression ([9]; primary normal fibroblasts, RT-PCR): inhibitory effect is also observed
analgesic potential, times that of morphine [10]: two hundred

CNC1(C)C2CCC(C2)C1(C)C (stereo not drawn) [mecamylamine]
effect of the antagonist on the DMPP inhibition of eosinophil transmigration (blood eosinophils; together with DMPP): reverses the effect of DMPP

CN1CCCC1c1cccnc1 (stereo not drawn) [nicotine, Nicotine]
reduction of TNF-α mRNA expression ([11]; LPS stimulated 24 h, 40 μM): 98%
effect on TNF-α mRNA expression ([11]; SR-stimulated 24 h, only the 160 μM dose (80 and 160 μM tested)): had an effect on mRNA expression
reduction of IL-10 mRNA expression ([12]; LPS stimulated 24 h, 40 μM): 88% and 87%
drop of IL-10 mRNA expression ([12]; SR-stimulated 24 h, 160 μM): 60%
percentage of expression of CD80 [13]: 20%
expression of CD86 relative to non-treated cells [14]: about half of the expression
effect on SR-induced inflammation (BAL cells) ([8]; intra-nasal every 6 h, 24 h after SR, DMPP 0.5 mg/kg, nicotine 0.5 mg/kg, epibatidine 2 μg/kg): marked inhibitory effect; also recorded: significant inhibitory effect
reduction of IL-4 mRNA expression (IL-4 mRNA expression): ≤ 90%
reduction of IL-4 mRNA expression (IL-4 mRNA expression; listed as Nicotine): up to 92%
inhibition of eosinophil transmigration (blood eosinophils; [16]): reduce blood eosinophil transmigration
collagen A1 gene expression ([9]; 1 and 10 μM): slight inhibitory effect
collagen A1 gene expression ([9]; higher concentrations (above 10 μM)): no effects
lymphocyte population in BAL [15]: decrease in the lymphocyte population
number of total cells in bronchoalveolar lavage (BAL) [15]: significantly reduced
expression of IFN-γ mRNA vs cells from non-treated animals (IFN-γ mRNA): significantly lower expression

C[C@]12C=CC(=O)C=C1CC[C@@H]1[C@@H]2C(=O)C[C@@]2(C)[C@H]1CC[C@]2(O)C(=O)CO [prednisone]
dogs with decreased lung resistance / improved hyper-responsiveness [7]: None of the 12 dogs
